Measurements from ChEMBL document CHEMBL3259558, “Identification of amides derived from 1H-pyrazolo[3,4-b]pyridine-5-carboxylic acid as potent inhibitors of human nicotinamide phosphoribosyltransferase (NAMPT)” (Bioorg Med Chem Lett, 2013).
Values after ≈ are worked out from the molar mass of the structure shown. Active and inactive are the calls of the source. The calls are words filed in the database; no cut-off is given here.

How the values were obtained:
[1] = Antiproliferative activity against dog DH82 cells assessed as cell viability after 96 hrs by CyQuant staining-based assay; format: functional; conditions: Canis lupus familiaris, DH82, 96 h
[2] = Inhibition of C-terminal His-6-tagged cynomolgus monkey NAMPT expressed in Escherichia coli (DE3)-RIL cells after 30 mins by mass spectrometry-based analysis; set-up: species or system Macaca fascicularis
[3] = system: Tumour; test: Reduction of NAD level in tumor of NCR nude mouse xenografted with human A2780 cells at 100 mg/kg, po qd measured after day-5 dose for 1 to 24 hrs relative to vehicle-treated control; format: functional, organism-based; set-up: dose 100 mg/kg
[4] = Cytotoxicity against African green monkey COS1 cells assessed as cell viability after 96 hrs by CyQuant staining-based assay; conditions: Chlorocebus aethiops, COS-1, 96 h
[5] = Antiproliferative activity against human MIAPaCa2 cells assessed as cell viability after 96 hrs by CyQuant staining-based assay; format: functional; conditions: MIA PaCa-2, 96 h
[6] = Tmax in NCR nude mouse at 100 mg/kg, po; format: ADME, organism-based; set-up: dose 100 mg/kg, route oral; conditions: in vivo
[7] = system: PC-3; test: Cellular uptake in human PC3 cells at 1000 nM; format: ADME, cell-based; conditions: pc-3, 1 µM
[8] = Ratio of drug level in retina to plasma of Sprague-Dawley rat at 30 mg/kg, po qd for 2 days measured 6.5 hrs after last dose
[9] = system: A2780; test: Antiproliferative activity against human A2780 cells assessed as cell viability after 72 hrs by SRB assay; format: functional, cell-based; conditions: A2780, 72 h
[10] = Cytotoxicity against African green monkey COS7 cells assessed as cell viability after 96 hrs by CyQuant staining-based assay; conditions: Chlorocebus aethiops, COS-7, 96 h
[11] = Drug uptake in Sprague-Dawley rat retina at 30 mg/kg, po single dose measured 1 hr after dose
[12] = Fraction unbound in mouse plasma at 5 uM by LC-MS/MS analysis; format: ADME, cell-free
[13] = Half life in NCR nude mouse at 5 mg/kg, iv; format: ADME, organism-based; set-up: dose 5 mg/kg, route intravenous; conditions: in vivo
[14] = Antiproliferative activity against dog D17 cells assessed as cell viability after 96 hrs by CyQuant staining-based assay; format: functional; conditions: Canis lupus familiaris, D17, 96 h
[15] = biological target: T1, Nicotinamide phosphoribosyltransferase (Mus musculus, UniProt Q99KQ4); test: Inhibition of NAMPT in mouse cells assessed as reduction in NAD level after 48 hrs by mass spectrometry; format: cell-based
[16] = Antiproliferative activity against dog A72 cells assessed as cell viability after 96 hrs by CyQuant staining-based assay; format: functional; conditions: Canis lupus familiaris, A-72, 96 h
[17] = Drug uptake in Sprague-Dawley rat retina at 30 mg/kg, po single dose measured 6.5 hrs after dose
[18] = Cellular uptake in mouse KPP cells at 1000 nM; format: ADME, cell-based; conditions: 1 µM
[19] = Apparent permeability from apical to basolateral side in MDCK cells at 10 uM by LC-MS/MS analysis; format: ADME, cell-based, Canis lupus familiaris; conditions: dog
[20] = Antiproliferative activity against human Calu6 cells assessed as cell viability after 96 hrs by CyQuant staining-based assay; format: functional; conditions: Calu-6, 96 h
[21] = Antiproliferative activity against mouse B16F10 cells assessed as cell viability after 96 hrs by CyQuant staining-based assay; format: functional; conditions: B16-F10, 96 h
[22] = system: PC-3; test: Antiproliferative activity against human PC3 cells assessed as cell viability after 96 hrs by CyQuant staining-based assay; format: functional; conditions: PC-3, 96 h
[23] = Half life in NCR nude mouse at 100 mg/kg, po; format: ADME, organism-based; set-up: dose 100 mg/kg, route oral; conditions: in vivo
[24] = system: Mus musculus; test: Toxicity in NCR nude mouse xenografted with human A2780 cells assessed as decrease in body weight at 100 mg/kg, po qd measured after 5 days; format: organism-based; set-up: dose 100 mg/kg, route oral; conditions: in vivo, 120 h
[25] = system: PC-3; test: Cellular uptake in human PC3 cells at 200 nM; format: ADME, cell-based; conditions: pc-3, 0.2 µM
[26] = Ratio of drug level in retina to plasma of Sprague-Dawley rat at 30 mg/kg, po qd for 2 days measured 1 hr after last dose
[27] = biological target: T1, Nicotinamide phosphoribosyltransferase; test: Inhibition of mouse NAMPT after 30 mins by mass spectrometry-based analysis
[28] = biological target: Nicotinamide phosphoribosyltransferase (Rattus norvegicus, UniProt Q80Z29); test: Inhibition of rat NAMPT after 30 mins by mass spectrometry-based analysis
[29] = system: HCT-116; test: Antiproliferative activity against human HCT116 cells assessed as cell viability after 96 hrs by CyQuant staining-based assay; format: functional; conditions: HCT-116, 96 h
[30] = Dissociation constant, pKa of the compound; format: physicochemical
[31] = system: A2780; test: Antitumor activity against human A2780 cells xenografted in NCR nude mouse assessed as tumor regression at 100 mg/kg, po qd measured for 5 to 15 days; format: functional, organism-based; set-up: dose 100 mg/kg
[32] = Antiproliferative activity against mouse KPR cells assessed as cell viability after 96 hrs by CyQuant staining-based assay; format: functional
[33] = Cmax in NCR nude mouse at 100 mg/kg, po; format: ADME, organism-based; set-up: dose 100 mg/kg, route oral; conditions: in vivo
[34] = Volume of distribution at steady state in NCR nude mouse at 5 mg/kg, iv; format: ADME, organism-based; set-up: dose 5 mg/kg, route intravenous; conditions: in vivo, read-out: Vdss
[35] = Octanol-PBS buffer distribution coefficient, log D of the compound at pH 7.4 by shake flask method; format: physicochemical
[36] = Inhibition of C-terminal His-6-tagged dog NAMPT expressed in Escherichia coli (DE3)-RIL cells after 30 mins by mass spectrometry-based analysis; set-up: species or system Canis lupus familiaris
[37] = Cytotoxicity against rhesus monkey RF/6A cells assessed as cell viability after 96 hrs by CyQuant staining-based assay; conditions: Macaca mulatta
[38] = Aqueous solubility of the compound in PBS at pH 7.2 by LC/CLND analysis; format: physicochemical
[39] = system: A2780; test: Antiproliferative activity against human A2780 cells assessed as cell viability after 72 hrs by SRB assay in presence of nitotinamide mononucleotide; format: functional, cell-based
[40] = Cellular uptake in mouse KPP cells at 200 nM; format: ADME, cell-based; conditions: 0.2 µM
[41] = Antiproliferative activity against mouse KPP cells assessed as cell viability after 96 hrs by CyQuant staining-based assay; format: functional
[42] = Antiproliferative activity against human HT1080 cells assessed as cell viability after 96 hrs by CyQuant staining-based assay; format: functional; conditions: HT-1080, 96 h
[43] = Clearance in NCR nude mouse at 5 mg/kg, iv; format: ADME, organism-based; set-up: dose 5 mg/kg, route intravenous; conditions: in vivo

T1 sequence (Q99KQ4 whole entry): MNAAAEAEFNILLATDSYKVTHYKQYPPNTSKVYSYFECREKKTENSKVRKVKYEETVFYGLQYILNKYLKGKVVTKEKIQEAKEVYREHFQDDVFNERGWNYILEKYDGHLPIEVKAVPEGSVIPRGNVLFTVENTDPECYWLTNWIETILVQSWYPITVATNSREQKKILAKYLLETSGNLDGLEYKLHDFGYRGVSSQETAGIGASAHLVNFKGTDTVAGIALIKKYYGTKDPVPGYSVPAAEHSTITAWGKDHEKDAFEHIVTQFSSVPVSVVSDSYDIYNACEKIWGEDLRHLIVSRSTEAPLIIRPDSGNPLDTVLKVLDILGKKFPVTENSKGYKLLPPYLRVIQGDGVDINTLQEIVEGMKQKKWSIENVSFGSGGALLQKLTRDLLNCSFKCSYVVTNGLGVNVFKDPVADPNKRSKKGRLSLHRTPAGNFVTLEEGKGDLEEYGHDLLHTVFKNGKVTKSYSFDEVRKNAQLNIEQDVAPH
Chain of Nicotinamide phosphoribosyltransferase (Rattus norvegicus, UniProt Q80Z29) (Q80Z29 whole entry): as the sequence (Q99KQ4 whole entry) above, with T335S, N439T, I484M counted along it

O=C(NCc1ccc(S(=O)(=O)c2cccc(C(F)(F)F)c2)cc1)c1cnc2[nH]ncc2c1
IC50 [1]: 41 nM
IC50 [2]: 73 nM
Activity [3]: Active
IC50 [4]: 501 nM
IC50 [5]: 30 nM
Tmax [6]: 0.25 h
Drug uptake [7]: 54 nM
Kp at 6.5 h [8]: 0.093
IC50 [9]: 4.3 nM
IC50 [10]: 863 nM
concentration at 1 h [11]: 940 nM
fraction unbound at 5 µM [12]: 0.013
half-life [13]: 2.6 h
IC50 [14]: 98 nM
EC50 [15]: 70 nM
IC50 [16]: 23 nM
concentration at 6.5 h [17]: 680 nM
Drug uptake [18]: 74 nM
Papp A→B at 10 µM [19]: 11 ×10⁻⁶ cm/s
IC50 [20]: 21 nM
IC50 [21]: > 1000 nM
IC50 [22]: 9 nM
half-life [23]: 3.4 h
Activity [24]: Toxic
Drug uptake [25]: 10 nM
Kp at 1 h [26]: 0.071
IC50 [27]: 59 nM
IC50 [28]: 35 nM
IC50 [29]: 8 nM
pKa [30]: < 2
Activity [31]: Active
IC50 [32]: > 1000 nM
Cmax [33]: 53000 nM
Vd [34]: 0.45 L/kg
logD [35]: 3.4
IC50 [36]: 22 nM
IC50 [37]: 386 nM
solubility [38]: 1.4 µM (≈ 0.645 µg/mL)
inhibition [39]: inactive
Drug uptake [40]: 12 nM
IC50 [41]: 775 nM
IC50 [42]: 9 nM
clearance [43]: 3.3 mL/min/kg
